# Tests used:
# Assay in all cases: Greenhouse herbicidal activity assay, post-emergence
# Format in all cases: in vivo
# Cyperus iria = details: Post-emergence test, rate 150 g a.i./hm^2, grade by fresh weight inhibition rate
# Text: (§1) Post-emergence: Seeds of gramineous weeds (Echinochloa crusgalli, Echinochloa crusgalli var. zelayensis, Echinochloa phyllopogon, Eleusine indica, Digitaria sanguinalis, Leptochloa chinensis, Setaria viridis, Alopecurus japonicus Steud, Beckmannia syzigachne, Polypogon fugax, Alopecurus aequalis, Lolium multiflorum, Poa annua, Aegilops tataschii, Avena fatua, Alopecurus myosuroides, Bromus japonicus), broadleaf weeds (Eclipta prostrata, Amaranthus retroflexus, Rorippa indica, Myosoton aquaticum, Veronica didyma, Galium aparine, Solanum nigrum, Xanthium sibiricum, Conyza canadensis, Sesbania cannabina, Sagittaria trifolia), and Cyperus iria (Cyperus iria, Scirpus juncoides, Cyperus difformis, etc.) were sown in plastic pots (7 cm diameter) with nutrient soil and bottom holes. Crop seeds (including Oryza sativa subsp. indica, Oryza sativa subsp. japonica, Oryza sativa L. var. Glutinosa matsum, Triticum aestivum, Zea mays, Sorghum bicolor, Setaria italica, Glycine max, Gossypium hirsutum, Brassica napus, Arachis hypogaea) were sown in plastic pots (10 cm diameter) with nutrient soil and bottom holes. After sowing, the pots were placed in the growth chamber until the plants reached the 3-6 leaf stage for foliar spraying. Post-treatment, the materials were air-dried naturally and returned to the growth chamber. Results were assessed 14-21 days later.
# (§2) • A: Fresh weight inhibition rate≥80% to 100%; • B: Fresh weight inhibition rate[…] to <80%; • C: Fresh weight inhibition rate≥40% to <60%; • D: Fresh weight inhibition rate≥20% to <40%; • E: Fresh weight inhibition rate<20%; • NT: Not tested.
# Leptochloa chinensis = details: Post-emergence test, rate 150 g a.i./hm^2, grade by fresh weight inhibition rate
# Text: as §1, §2
# Echinochloa crusgalli = details: Post-emergence test, rate 150 g a.i./hm^2, grade by fresh weight inhibition rate; for pest or weed control at 150 g/ha: Echinochloa crus-galli, read-out: Control efficacy grade, Echinochloa crusgalli
# Text: as §1, §2
# Eclipta prostrata = details: Post-emergence test, rate 150 g a.i./hm^2; grade by fresh weight inhibition rate
# Text: as §1, §2
Structure (SMILES),"Control efficacy grade, Cyperus iria (Cyperus iria)","Control efficacy grade, Leptochloa chinensis (Leptochloa chinensis)","Control efficacy grade, Echinochloa crusgalli (Echinochloa crusgalli)","Control efficacy grade, Eclipta prostrata (Eclipta prostrata)","pest or weed control at 150 g/ha (Cyperus iria; Cyperus iria, read-out: Control efficacy grade, Cyperus iria) [%]","pest or weed control at 150 g/ha (Leptochloa chinensis; Dinebra chinensis, read-out: Control efficacy grade, Leptochloa chinensis) [%]",pest or weed control at 150 g/ha (Echinochloa crusgalli) [%]
CCC(C)Sc1c(S(C)(=O)=O)ccc(C(=O)Nc2nnnn2C)c1Cl (racemic) [Compound 1-16],B (Fresh weight inhibition rate≥260% to <80%),A (Fresh weight inhibition rate≥80% to 100%),A (Fresh weight inhibition rate≥80% to 100%),A (Fresh weight inhibition rate≥80% to 100%),–,–,–
Cn1nnnc1NC(=O)c1ccc(S(C)(=O)=O)c([S+]([O-])C2CCCC2)c1Cl (racemic) [Compound 1-43],A (Fresh weight inhibition rate≥80% to 100%),A (Fresh weight inhibition rate≥80% to 100%),A (Fresh weight inhibition rate≥80% to 100%),A (Fresh weight inhibition rate≥80% to 100%),–,–,–
CCC[S+]([O-])c1c(S(C)(=O)=O)ccc(C(=O)N(C)c2nnnn2C)c1Cl (racemic) [Compound 1-98],A (Fresh weight inhibition rate≥80% to 100%),A (Fresh weight inhibition rate≥80% to 100%),A (Fresh weight inhibition rate≥80% to 100%),–,–,–,–
CCC[S+]([O-])c1c(S(C)(=O)=O)ccc(C(=O)N(C)c2ncnn2C)c1Cl (racemic) [Compound 2-78],–,–,A (Fresh weight inhibition rate≥80% to 100%),–,–,–,–
CCc1nnc(NC(=O)c2ccc(S(C)(=O)=O)c(SC(C)CC)c2Cl)o1 (racemic) [Compound 3-398],A (Fresh weight inhibition rate≥80% to 100%),A (Fresh weight inhibition rate≥80% to 100%),B (Fresh weight inhibition rate≥260% to <80%),–,–,–,–
CC(C)c1nnc(NC(=O)c2ccc(S(C)(=O)=O)c([S+]([O-])C3CCCC3)c2Cl)o1 (racemic) [Compound 3-546],A (Fresh weight inhibition rate≥80% to 100%),A (Fresh weight inhibition rate≥80% to 100%),B (Fresh weight inhibition rate≥260% to <80%),A (Fresh weight inhibition rate≥80% to 100%),–,–,–
CC(C)c1nnc(NC(=O)c2ccc(S(C)(=O)=O)c([S+]([O-])C3CCCCC3)c2Cl)o1 (racemic) [Compound 3-551],A (Fresh weight inhibition rate≥80% to 100%),A (Fresh weight inhibition rate≥80% to 100%),B (Fresh weight inhibition rate≥260% to <80%),A (Fresh weight inhibition rate≥80% to 100%),–,–,–
CC(C)c1nnc(N(C)C(=O)c2ccc(S(C)(=O)=O)c([S+]([O-])C(C)C)c2Cl)o1 (racemic) [Compound 3-808],–,–,B (Fresh weight inhibition rate≥260% to <80%),–,–,–,–
CC(C)[S+]([O-])c1c(S(C)(=O)=O)ccc(C(=O)N(C)c2nnc(C3CC3)o2)c1Cl (racemic) [Compound 3-809],–,–,B (Fresh weight inhibition rate≥260% to <80%),–,–,–,–
Cc1nnc(N(C)C(=O)c2ccc(S(C)(=O)=O)c([S+]([O-])C3CC3)c2Cl)o1 (racemic) [Compound 3-812],–,B (Fresh weight inhibition rate≥260% to <80%),B (Fresh weight inhibition rate≥260% to <80%),A (Fresh weight inhibition rate≥80% to 100%),–,–,–
CCCC[S+]([O-])c1c(S(C)(=O)=O)ccc(C(=O)N(C)c2nnc(C)o2)c1Cl (racemic) [Compound 3-815],–,–,B (Fresh weight inhibition rate≥260% to <80%),–,–,–,–
Cc1nnc(N(C)C(=O)c2ccc(S(C)(=O)=O)c([S+]([O-])CC(C)C)c2Cl)o1 (racemic) [Compound 3-829],–,B (Fresh weight inhibition rate≥260% to <80%),A (Fresh weight inhibition rate≥80% to 100%),–,–,–,–
Cc1nnc(N(C)C(=O)c2ccc(S(C)(=O)=O)c([S+]([O-])CC(F)(F)F)c2Cl)o1 (racemic) [Compound 3-832],–,–,A (Fresh weight inhibition rate≥80% to 100%),–,–,–,–
Cc1nnc(N(C)C(=O)c2ccc(S(C)(=O)=O)c([S+]([O-])CCCl)c2Cl)o1 (racemic) [Compound 3-835],–,–,A (Fresh weight inhibition rate≥80% to 100%),–,–,–,–
Cn1nnnc1NC(=O)c1ccc(S(C)(=O)=O)c(SC2CCC2)c1Cl [Compound 1-37],A (Fresh weight inhibition rate≥80% to 100%),–,A (Fresh weight inhibition rate≥80% to 100%),A (Fresh weight inhibition rate≥80% to 100%),–,–,–
Cn1nnnc1NC(=O)c1ccc(S(C)(=O)=O)c(SC2CCCC2)c1Cl [Compound 1-42],A (Fresh weight inhibition rate≥80% to 100%),A (Fresh weight inhibition rate≥80% to 100%),B (Fresh weight inhibition rate≥260% to <80%),A (Fresh weight inhibition rate≥80% to 100%),–,–,–
Cn1nnnc1NC(=O)c1ccc(S(C)(=O)=O)c(SC2CCCCC2)c1Cl [Compound 1-47],A (Fresh weight inhibition rate≥80% to 100%),A (Fresh weight inhibition rate≥80% to 100%),B (Fresh weight inhibition rate≥260% to <80%),A (Fresh weight inhibition rate≥80% to 100%),–,–,–
"CCc1nnc(NC(=O)c2ccc(S(C)(=O)=O)c(SC(C)C)c2Cl)o1 [Compound 3-388, 2-chloro-N-(5-ethyl-1,3,4-oxadiazol-2-yl)-3-(isopropylthio)-4-(methylsulfonyl)benzamide]",–,–,–,–,80 to 100,80 to 100,80 to 100
CC(C)c1nnc(NC(=O)c2ccc(S(C)(=O)=O)c(SC3CC3)c2Cl)o1 [Compound 3-535],A (Fresh weight inhibition rate≥80% to 100%),B (Fresh weight inhibition rate≥260% to <80%),B (Fresh weight inhibition rate≥260% to <80%),–,–,–,–
"CCCSc1c(S(C)(=O)=O)ccc(C(=O)N(C)c2nnc(C)o2)c1Cl [Compound 3-786, 2-chloro-N-methyl-N-(5-methyl-1,3,4-oxadiazol-2-yl)-4-(methylsulfonyl)-3-(propylthio)benzamide]",–,–,–,–,–,–,80 to 260

# Reference: patent US20250223268A1, “4-Methylsulfonylbenzamide Compound, Preparation Method, Herbicidal Composition And Use” (Jiangsu Flag Chemical Industry Co., Ltd., priority 2022, published 2025)
